Source: paper PMC9229843, “Cancer-Related Somatic Mutations in Transmembrane Helices Alter Adenosine A1 Receptor Pharmacology” (Molecules, 2022)
Numbering of substitutions follows the chain as printed.

Assays:
Assay in all cases: [3H]DPCPX radioligand displacement assay, CHO membranes
Type in all cases: binding
Details in all cases: fraction of high-affinity state; two-site model
[1] = target: T1, hA1AR H78L^3.23 (Homo sapiens, UniProt P30542, H78L); set-up: expressed in transfected cells; host or cells: CHO cells, transient; membranes
T1 sequence (P30542 1-326 H78L): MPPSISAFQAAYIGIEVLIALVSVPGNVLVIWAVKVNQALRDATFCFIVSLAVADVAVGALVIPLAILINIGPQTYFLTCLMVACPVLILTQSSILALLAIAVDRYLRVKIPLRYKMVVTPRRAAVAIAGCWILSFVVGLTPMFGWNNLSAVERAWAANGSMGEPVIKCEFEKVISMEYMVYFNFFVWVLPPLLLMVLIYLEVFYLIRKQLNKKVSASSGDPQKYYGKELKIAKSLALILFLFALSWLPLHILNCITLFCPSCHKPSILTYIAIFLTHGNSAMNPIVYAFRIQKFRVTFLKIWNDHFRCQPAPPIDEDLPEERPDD
Method: (§1) Transient transfection of CHO cells with wild type or mutated hA1AR plasmid constructs was performed using a polyethylenimine (PEI) method. Cells were seeded in 10-cm culture dishes to achieve 50–60% confluency 24 h prior to transfection. On the day of transfection, cells were transfected with a PEI: DNA ratio of 3:1 and a plasmid DNA amount of 10 μg/dish. Moreover, 24 h post-transfection, the medium was refreshed, and 48 h after transfection, cells were collected and membranes were prepared as previously described. Membranes were aliquoted in 250 or 100 μL and stored at −80 °C. Membrane protein concentrations were determined using the BCA method.
(§2) The displacement assays were performed as described previously. […] Note, the number of cell membranes (10–25 µg) was adjusted to obtain (approximately) a 1500 DPM assay window for each mutant. […] Incubations were terminated after 1 h at 25 °C by rapid vacuum filtration through GF/B filter plates (PerkinElmer, Groningen, Netherlands) using a Perkin Elmer Filtermate-harvester. Afterward, filter plates were washed ten times with ice-cold buffer (50 mM Tris-HCl, pH 7.4) and dried at 55 °C for 30 min. After the addition of 25 µL per well of the Microscint scintillation cocktail (PerkinElmer, Groningen, The Netherlands), the filter-bound radioactivity was measured by scintillation spectrometry in a Microbeta2® 2450 microplate counter (PerkinElmer).
(§3) All experimental data were analyzed by GraphPad Prism 7.0 or 8.0 (GraphPad Software Inc., San Diego, CA, USA). Data from yeast liquid growth and [^35S]GTPγS binding assays were analyzed by non-linear regression using “log (agonist) vs. response (three parameters)” or “log (inhibitor) vs. response (three parameters)” to obtain potency (EC50), inhibitory potency (IC50), and efficacy (Emax or Imax) values. The radioligand displacement curves were obtained from a statistically preferred one-site or two-site binding model. pKi values were calculated from pIC50 values using the Cheng–Prusoff equation, where KD values were obtained from the homologous competition assays from this study and calculated by non-linear regression using “one site–homologous” [62].

[2] = target: T2, hA1AR S246T^6.47 (Homo sapiens, UniProt P30542, S246T); set-up: expressed in transfected cells; host or cells: CHO cells, transient; membranes
T2 sequence (P30542 1-326 S246T): T1 sequence (P30542 1-326 H78L) with L78H, S246T
Method: as §1, §2, §3

[3] = target: T3, hA1AR L134F^4.52 (Homo sapiens, UniProt P30542, L134F); set-up: expressed in transfected cells; host or cells: CHO cells, transient; membranes
T3 sequence (P30542 1-326 L134F): T1 sequence (P30542 1-326 H78L) with L78H, L134F
Method: as §1, §2, §3

[4] = target: T4, hA1AR W188C^5.46 (Homo sapiens, UniProt P30542, W188C); set-up: expressed in transfected cells; host or cells: CHO cells, transient; membranes
T4 sequence (P30542 1-326 W188C): T1 sequence (P30542 1-326 H78L) with L78H, W188C
Method: as §1, §2, §3

[5] = target: T5, hA1AR G279S^7.44 (Homo sapiens, UniProt P30542, G279S); set-up: HA; expressed in transfected cells; host or cells: CHO cells, transient PEI transfection; membranes prepared
T5 sequence (P30542 1-326 G279S): T1 sequence (P30542 1-326 H78L) with L78H, G279S
Method: as §1
The displacement assays were performed as described previously. […] After the addition of 25 µL per well of the Microscint scintillation cocktail (PerkinElmer, Groningen, The Netherlands), the filter-bound radioactivity was measured by scintillation spectrometry in a Microbeta2® 2450 microplate counter (PerkinElmer).
All experimental data were analyzed by GraphPad Prism 7.0 or 8.0 (GraphPad Software Inc., San Diego, CA, USA). Data from yeast liquid growth and [^35S]GTPγS binding assays were analyzed by non-linear regression using “log (agonist) vs. response (three parameters)” or “log (inhibitor) vs. response (three parameters)” to obtain potency (EC50), inhibitory potency (IC50), and efficacy (Emax or Imax) values. […]

SMILES: OC[C@H]1O[C@@H](n2cnc3c(NC4CCCC4)ncnc32)[C@H](O)[C@@H]1O [CPA, N^6-cyclopentyladenosine]
- Fraction (High) [1]: 0.33 ± 0.04
- Fraction (High) [2]: 0.26 ± 0.03
- Fraction (High) [3]: 0.34 ± 0.03
- Fraction (High) [4]: 0.29 ± 0.01
- Fraction (High) [5]: 0.17 ± 0.04
